We go through 19 compounds from patent publication US20140309265A1, “MACROCYCLIC COMPOUNDS FOR INHIBITION OF INHIBITORS OF APOPTOSIS” (Ensemble Therapeutics, priority 2011, published 2014).

Molecules are shown by their SMILES. Where two headings read alike, the source gives them in different places.

Holding throughout (format): binding
Test [1] deals with N-His-Tb-BIR3(241-356, XIAP) (Homo sapiens, UniProt P98170). Briefly: XIAP-BIR3 SMAC Peptide Fluorescence Polarization Assay (FPA). On the technique in general: Polarisation of emitted light reports the rotation of a fluorescent probe.
The target in test [2] is T1, XIAP His-BIR2 (124-240/C202A/C213G) (Homo sapiens, UniProt P98170, C202A/C213G).
T1 construct: additions of His-BIR2 (124-240/C202A/C213G), Biotinylated SMAC peptide
Briefly: XIAP-BIR2/SMAC Peptide AlphaScreen Assay. The following applies: XIAP BIR2, AlphaScreen, Table 2; read-out: BIR2 IC50. The method, then:
A. XIAP-BIR2/SMAC Peptide AlphaScreen Assay Assays were performed in white, flat-bottom, 384-well ProxiPlates (Perkin Elmer). […] The reaction was incubated at room temperature for 60 minutes. After 60 minutes, 2.5 μL of Alphascreen detection reagent (Perkin Elmer) was added to the reaction mixture and incubated at room temperature in the dark for 120 minutes. The Alphascreen signal generated by the reaction was detected on the Envision Plate Reader. […] Compounds were dissolved at 10 mM in dimethylsulfoxide (DMSO) and evaluated at eleven concentrations. IC50 values were derived by non-linear regression analysis.
For orientation: Alpha assays give light when donor and acceptor beads are brought close together.

For another test, the target named is T2, His-BIR3 (241-356, XIAP) (Homo sapiens, UniProt P98170).
T2 construct: additions of His-BIR3 (241-356, XIAP), fluorescein labeled SMAC peptide
Description: XIAP-BIR3/SMAC Homogeneous Time Resolved Fluorescence (HTRF) Assay. The following applies: Table 4. A general note: In TR-FRET formats the signal depends on donor and acceptor labels being close together.

In test [3] the target is T3, His-BIR2-3 (125-356, C202A/C213G, XIAP) (Homo sapiens, UniProt P98170, C202A/C213G).
T3 construct: additions of His-BIR2-3 (125-356, C202A/C213G, XIAP), fluorescein labeled dimeric SMAC peptide
Briefly: XIAP-BIR2-3 Dimeric SMAC Peptide Homogeneous Time Resolved Fluorescence (HTRF) Assay. Conditions: XIAP BIR2-3, HTRF, Table 4.

T1 sequence (P98170 124-240 C202A/C213G): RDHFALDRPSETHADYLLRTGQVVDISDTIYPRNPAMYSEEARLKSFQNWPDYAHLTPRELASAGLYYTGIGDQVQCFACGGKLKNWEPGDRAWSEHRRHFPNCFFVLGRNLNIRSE
T2 sequence (P98170 241-356): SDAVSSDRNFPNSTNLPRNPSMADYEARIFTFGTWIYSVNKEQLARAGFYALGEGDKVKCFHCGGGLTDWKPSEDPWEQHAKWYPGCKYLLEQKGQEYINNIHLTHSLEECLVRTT
Chain of N-His-Tb-BIR3(241-356, XIAP) (P98170 241-356): as above
T3 sequence (P98170 125-356 C202A/C213G): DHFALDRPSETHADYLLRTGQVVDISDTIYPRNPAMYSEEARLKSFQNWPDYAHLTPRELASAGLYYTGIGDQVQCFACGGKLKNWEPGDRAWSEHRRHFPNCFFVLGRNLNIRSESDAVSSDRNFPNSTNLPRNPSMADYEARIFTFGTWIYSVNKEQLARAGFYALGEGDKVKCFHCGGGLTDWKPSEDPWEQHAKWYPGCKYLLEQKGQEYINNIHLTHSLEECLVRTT

Turning to `CN[C@@H](C)C(=O)N[C@H](C(=O)N1C[C@@H]2C[C@H]1C(=O)N[C@@H](Cc1ccccc1)C(=O)N[C@H](C(=O)O)Cc1ccc(cc1)OCc1cn(nn1)[C@H]1C[C@@H](C(=O)N[C@@H](Cc3ccccc3)C(=O)N[C@H](C(=O)O)Cc3ccc(cc3)OCc3cn2nn3)N(C(=O)[C@@H](NC(=O)[C@H](C)NC)C(C)C)C1)C(C)C` [Compound 101], the 50% inhibitory concentration (IC50) – broadly, the concentration that inhibits the measured activity by half – in test [1] was 50 to 100 nM; in test [2], under 2000 nM.

Take `CN[C@@H](C)C(=O)N[C@H](C(=O)N1C[C@@H]2C[C@H]1C(=O)N[C@@H](Cc1ccccc1)C(=O)N[C@@H](C(=O)O)Cc1ccc(cc1)NC(=O)CCc1cn(nn1)[C@H]1C[C@@H](C(=O)N[C@@H](Cc3ccccc3)C(=O)N[C@@H](C(=O)O)Cc3ccc(cc3)NC(=O)CCc3cn2nn3)N(C(=O)[C@@H](NC(=O)[C@H](C)NC)C(C)C)C1)C(C)C` [Compound 102]: the IC50 in test [1] is 50 to 100 nM; in test [2], under 2000 nM.

With `CN[C@@H](C)C(=O)N[C@H](C(=O)N1CCc2cn(nn2)CCCOc2ccc(cc2)C[C@@H](C(=O)O)NC(=O)[C@H](Cc2ccccc2)NC(=O)CN(C(=O)[C@@H](NC(=O)[C@H](C)NC)C(C)C)CCc2cn(nn2)CCCOc2ccc(cc2)C[C@@H](C(=O)O)NC(=O)[C@H](Cc2ccccc2)NC(=O)C1)C(C)C` [Compound 103], the IC50 in test [1] (XIAP BIR3, FPA, Table 2, read-out: BIR3 IC50) is over 100 nM; in test [2], 2000 to 12000 nM.

For the compound `CN[C@@H](C)C(=O)N[C@H](C(=O)N1C[C@@H]2C[C@H]1C(=O)N[C@@H](Cc1ccccc1)C(=O)N[C@H](C(=O)N1CCN(C)CC1)Cc1ccc(cc1)OCc1cn(nn1)[C@H]1C[C@@H](C(=O)N[C@@H](Cc3ccccc3)C(=O)N[C@H](C(=O)N3CCN(C)CC3)Cc3ccc(cc3)OCc3cn2nn3)N(C(=O)[C@@H](NC(=O)[C@H](C)NC)C(C)C)C1)C(C)C` [Compound 104], the half-maximal inhibitory concentration (IC50) in test [1] was 50 to 100 nM; in test [2], over 12000 nM.

With `CCN(CC)C(=O)[C@@H]1Cc2ccc(cc2)OCc2cn(nn2)[C@H]2C[C@@H](C(=O)N[C@@H](Cc3ccccc3)C(=O)N[C@H](C(=O)N(CC)CC)Cc3ccc(cc3)OCc3cn(nn3)[C@H]3C[C@@H](C(=O)N[C@@H](Cc4ccccc4)C(=O)N1)N(C(=O)[C@@H](NC(=O)[C@H](C)NC)C(C)C)C3)N(C(=O)[C@@H](NC(=O)[C@H](C)NC)C(C)C)C2` [Compound 105], the IC50 in test [1] is 50 to 100 nM; in test [2], over 12000 nM.

`CN[C@@H](C)C(=O)N[C@H](C(=O)N1C[C@@H]2C[C@H]1C(=O)N[C@@H](Cc1ccccc1)C(=O)N[C@H](C(=O)NCCN(C)C)Cc1ccc(cc1)OCc1cn(nn1)[C@H]1C[C@@H](C(=O)N[C@@H](Cc3ccccc3)C(=O)N[C@H](C(=O)NCCN(C)C)Cc3ccc(cc3)OCc3cn2nn3)N(C(=O)[C@@H](NC(=O)[C@H](C)NC)C(C)C)C1)C(C)C` [Compound 106]: the IC50 in test [1] is 50 to 100 nM; in test [2], over 12000 nM.

Turning to `CN[C@@H](C)C(=O)N[C@H](C(=O)N1C[C@@H]2C[C@H]1C(=O)N[C@@H](CCc1ccccc1)C(=O)N[C@H](C(=O)O)Cc1ccc(cc1)OCc1cn(nn1)[C@H]1C[C@@H](C(=O)N[C@@H](CCc3ccccc3)C(=O)N[C@H](C(=O)O)Cc3ccc(cc3)OCc3cn2nn3)N(C(=O)[C@@H](NC(=O)[C@H](C)NC)C(C)C)C1)C(C)C` [Compound 107], the IC50 in test [1] is over 100 nM; in test [2], under 2000 nM.

Consider `CN[C@@H](C)C(=O)N[C@@H](CC1CCCCC1)C(=O)N1C[C@@H]2C[C@H]1C(=O)N[C@@H](Cc1ccccc1)C(=O)N[C@H](C(=O)O)Cc1ccc(cc1)OCc1cn(nn1)[C@H]1C[C@@H](C(=O)N[C@@H](Cc3ccccc3)C(=O)N[C@H](C(=O)O)Cc3ccc(cc3)OCc3cn2nn3)N(C(=O)[C@H](CC2CCCCC2)NC(=O)[C@H](C)NC)C1` [Compound 109], for which the IC50 was under 50 nM in test [1] and under 2000 nM in test [2].

As to `CN[C@@H](C)C(=O)N[C@H](C(=O)N1C[C@@H]2C[C@H]1C(=O)N[C@@H](Cc1cccc(C(F)(F)F)c1)C(=O)N[C@H](C(=O)O)Cc1ccc(cc1)COc1cn(nn1)[C@H]1C[C@@H](C(=O)N[C@@H](Cc3cccc(C(F)(F)F)c3)C(=O)N[C@H](C(=O)O)Cc3ccc(cc3)OCc3cn2nn3)N(C(=O)[C@@H](NC(=O)[C@H](C)NC)C(C)C)C1)C(C)C` [Compound 112], the values for the IC50 in test [1] and in test [2] were under 50 nM and 2000 to 12000 nM, respectively.

For `CN[C@@H](C)C(=O)N[C@H](C(=O)N1C[C@@H]2C[C@H]1C(=O)N[C@@H](Cc1ccc(C(F)(F)F)cc1)C(=O)N[C@H](C(=O)O)Cc1ccc(cc1)COc1cn(nn1)[C@H]1C[C@@H](C(=O)N[C@@H](Cc3ccc(C(F)(F)F)cc3)C(=O)N[C@H](C(=O)O)Cc3ccc(cc3)OCc3cn2nn3)N(C(=O)[C@@H](NC(=O)[C@H](C)NC)C(C)C)C1)C(C)C` [Compound 113], the IC50 in test [1] is 50 to 100 nM; in test [2], over 12000 nM.

With `CN[C@@H](C)C(=O)N[C@H](C(=O)N1C[C@@H]2C[C@H]1C(=O)N[C@@H](Cc1ccccc1)C(=O)NCc1cn(nn1)[C@H]1C[C@@H](C(=O)N[C@@H](Cc3ccccc3)C(=O)NCc3cn2nn3)N(C(=O)[C@@H](NC(=O)[C@H](C)NC)C(C)C)C1)C(C)C` [Compound 116], in test [2], the IC50 was under 2000 nM.

Regarding `CN[C@@H](C)C(=O)N[C@H](C(=O)N1C[C@@H]2CC1C(=O)N[C@@H](Cc1ccccc1)C(=O)N[C@H](C(=O)O)Cc1ccc(cc1)OCc1cn(nn1)[C@H]1C[C@@H](C(=O)N[C@@H](Cc3ccccc3)C(=O)NCc3cn2nn3)N(C(=O)[C@@H](NC(=O)[C@H](C)NC)C(C)C)C1)C(C)C` [Compound 135], the IC50 in test [2] was under 2000 nM.

Compound `CN[C@@H](C)C(=O)N[C@H](C(=O)N1C[C@@H]2C[C@H]1C(=O)N[C@@H](Cc1ccc3ccccc3c1)C(=O)N[C@H](C(=O)O)Cc1ccc(cc1)OCc1ccc(cc1)-c1cn(nn1)[C@H]1C[C@@H](C(=O)N[C@@H](Cc3ccc4ccccc4c3)C(=O)N[C@H](C(=O)O)Cc3ccc(cc3)OCc3cn2nn3)N(C(=O)[C@@H](NC(=O)[C@H](C)NC)C(C)(C)C)C1)C(C)(C)C` [Compound 1000] showed an IC50 in test [1] of 50 to 100 nM.

On to `CN[C@@H](C)C(=O)N[C@H](C(=O)N1C[C@@H]2C[C@H]1C(=O)N[C@@H](Cc1ccc3ccccc3c1)C(=O)N[C@H](C(=O)O)Cc1ccc(cc1)OCc1cn(nn1)[C@H]1C[C@@H](C(=O)N[C@@H](Cc3ccc4ccccc4c3)C(=O)N[C@H](C(=O)NS(=O)(=O)c3ccncc3)Cc3ccc(cc3)OCc3cn2nn3)N(C(=O)[C@@H](NC(=O)[C@H](C)NC)C(C)(C)C)C1)C(C)(C)C` [Compound 1046], for which the IC50 against His-BIR3 (241-356, XIAP) is under 10 nM; in test [3], at most 1 nM.

As to `CN[C@@H](C)C(=O)NC(C(=O)N1C[C@@H]2C[C@H]1C(=O)N[C@@H](Cc1ccc3ccccc3c1)C(=O)N[C@H](c1nc(=O)o[nH]1)Cc1ccc(cc1)OCc1cn(nn1)[C@H]1C[C@@H](C(=O)N[C@@H](Cc3ccc4ccccc4c3)C(=O)N[C@H](C(=O)O)Cc3ccc(cc3)OCc3cn2nn3)N(C(=O)[C@@H](NC(=O)[C@H](C)NC)C(C)(C)C)C1)C(C)(C)C` (some centres unmarked) [Compound 1047], the IC50 against His-BIR3 (241-356, XIAP) is under 10 nM; in test [3] it was at most 1 nM.

`CN[C@@H](C)C(=O)N[C@H](C(=O)N1C[C@@H]2C[C@H]1C(=O)N[C@@H](Cc1ccc3ccccc3c1)C(=O)N[C@H](C(=O)O)Cc1ccc(cc1)OCc1cn(nn1)[C@H]1C[C@@H](C(=O)N[C@@H](Cc3ccc4ccccc4c3)C(=O)N[C@H](c3nnn[nH]3)Cc3ccc(cc3)OCc3cn2nn3)N(C(=O)[C@@H](NC(=O)[C@H](C)NC)C(C)(C)C)C1)C(C)(C)C` [Compound 1048]: the IC50 at His-BIR3 (241-356, XIAP) was under 10 nM; in test [3] it was at most 1 nM.

Turning to `CN[C@@H](C)C(=O)N[C@H](C(=O)N1CCN2CCn3cc(nn3)C[C@@H](C(=O)OC)NC(=O)[C@H](Cc3ccc4ccccc4c3)NC(=O)[C@@H]3CN(CCN3C(=O)[C@@H](NC(=O)[C@H](C)NC)C(C)C)CCn3cc(nn3)C[C@@H](C(=O)O)NC(=O)[C@H](Cc3ccc4ccccc4c3)NC(=O)[C@@H]1C2)C(C)C` [Compound 1049], the IC50 is over 100 nM on His-BIR3 (241-356, XIAP) and 1 to 10 nM in test [3].

In the case of `CN[C@@H](C)C(=O)N[C@H](C(=O)N1CCN2C[C@H]1C(=O)N[C@@H](Cc1ccc3ccccc3c1)C(=O)N[C@H](C(=O)O)Cc1cn(nn1)CC(=O)N1CCN(C(=O)[C@@H](NC(=O)[C@H](C)NC)C(C)(C)C)[C@@H](C1)C(=O)N[C@@H](Cc1ccc3ccccc3c1)C(=O)N[C@H](C(=O)O)Cc1cn(nn1)CC2=O)C(C)(C)C` [Compound 1051], the IC50 is over 100 nM against His-BIR3 (241-356, XIAP) and over 10 nM in test [3].

Regarding `CN[C@@H](C)C(=O)N[C@H](C(=O)N1C[C@@H]2C[C@H]1C(=O)N[C@@H](Cc1ccc3ccccc3c1)C(=O)N[C@H](C(=O)O)Cc1ccc(cc1)OCc1cn(nn1)[C@H]1C[C@@H](C(=O)N[C@@H](Cc3ccc4ccccc4c3)C(=O)N[C@H](C(=O)NS(=O)(=O)CCCNC(C)=O)Cc3ccc(cc3)OCc3cn2nn3)N(C(=O)[C@@H](NC(=O)[C@H](C)NC)C(C)(C)C)C1)C(C)(C)C` [Compound 1052], the IC50 is under 10 nM on His-BIR3 (241-356, XIAP) and at most 1 nM in test [3].
